Legend:
Assay in all cases: pIC50, kinobeads binding competition
BCR = target: T1, BCR (UniProt P11274); conditions: cell material: Lysate mix
T1 sequence (whole entry): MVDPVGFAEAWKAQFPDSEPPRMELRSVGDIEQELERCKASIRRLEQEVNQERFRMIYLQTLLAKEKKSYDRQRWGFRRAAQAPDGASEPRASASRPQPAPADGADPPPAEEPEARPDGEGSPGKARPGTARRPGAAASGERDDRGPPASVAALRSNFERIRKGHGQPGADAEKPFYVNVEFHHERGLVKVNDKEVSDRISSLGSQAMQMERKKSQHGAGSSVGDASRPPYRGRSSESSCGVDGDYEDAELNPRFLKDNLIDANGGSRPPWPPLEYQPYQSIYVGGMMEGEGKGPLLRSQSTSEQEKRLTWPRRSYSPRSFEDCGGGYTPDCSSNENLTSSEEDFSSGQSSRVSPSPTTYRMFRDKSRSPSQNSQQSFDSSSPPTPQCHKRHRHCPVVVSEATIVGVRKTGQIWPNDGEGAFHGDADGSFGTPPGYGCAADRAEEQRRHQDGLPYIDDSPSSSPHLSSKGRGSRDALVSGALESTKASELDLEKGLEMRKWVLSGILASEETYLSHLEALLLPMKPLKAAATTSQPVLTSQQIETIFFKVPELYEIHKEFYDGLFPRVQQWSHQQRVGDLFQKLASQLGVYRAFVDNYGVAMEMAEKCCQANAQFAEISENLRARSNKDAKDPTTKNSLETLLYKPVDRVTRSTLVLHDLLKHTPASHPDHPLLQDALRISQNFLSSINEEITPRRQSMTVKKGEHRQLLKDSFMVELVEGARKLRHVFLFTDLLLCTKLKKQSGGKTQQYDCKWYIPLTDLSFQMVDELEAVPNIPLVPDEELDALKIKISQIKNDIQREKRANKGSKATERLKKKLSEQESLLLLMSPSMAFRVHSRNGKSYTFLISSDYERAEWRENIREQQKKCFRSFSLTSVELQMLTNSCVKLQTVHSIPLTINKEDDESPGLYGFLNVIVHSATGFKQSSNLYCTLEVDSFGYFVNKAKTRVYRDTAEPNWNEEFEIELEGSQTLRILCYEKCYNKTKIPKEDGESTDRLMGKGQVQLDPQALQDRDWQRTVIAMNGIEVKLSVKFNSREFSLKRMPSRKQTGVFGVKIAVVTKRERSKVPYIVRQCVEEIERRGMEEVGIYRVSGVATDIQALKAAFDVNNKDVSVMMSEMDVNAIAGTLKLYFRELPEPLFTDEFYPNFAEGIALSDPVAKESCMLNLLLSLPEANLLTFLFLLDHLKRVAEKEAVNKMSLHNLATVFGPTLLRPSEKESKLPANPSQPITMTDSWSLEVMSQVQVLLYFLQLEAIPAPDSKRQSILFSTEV
In short: (§1)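 Live Jurkat cells were treated with nine compound concentrations (top 30 μM, 1:4 steps) or DMSO for 60 min at 37 °C before lysis. Alternatively, Jurkat lysate or a 1:1:1:1 HEK293/K-562/HepG2/placenta lysate mix was incubated with nine concentrations (top 30 μM, 1:5 steps) for 60 min at 4 °C. Kinobeads-bound proteins were digested and quantified by TMT10 LC-MS/MS. pIC50 came from logistic dose-response fits (R drc package) of fold changes versus DMSO, in biological duplicates.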

CAMKK2 = CAMKK2 (UniProt Q96RR4)
In short: as §1

EIF2AK4 = EIF2AK4 (UniProt Q9P2K8)
In short: as §1

FER = FER (UniProt P16591)
In short: as §1

MAP4K3 = target: T2, MAP4K3 (UniProt Q8IVH8)
T2 sequence (whole entry): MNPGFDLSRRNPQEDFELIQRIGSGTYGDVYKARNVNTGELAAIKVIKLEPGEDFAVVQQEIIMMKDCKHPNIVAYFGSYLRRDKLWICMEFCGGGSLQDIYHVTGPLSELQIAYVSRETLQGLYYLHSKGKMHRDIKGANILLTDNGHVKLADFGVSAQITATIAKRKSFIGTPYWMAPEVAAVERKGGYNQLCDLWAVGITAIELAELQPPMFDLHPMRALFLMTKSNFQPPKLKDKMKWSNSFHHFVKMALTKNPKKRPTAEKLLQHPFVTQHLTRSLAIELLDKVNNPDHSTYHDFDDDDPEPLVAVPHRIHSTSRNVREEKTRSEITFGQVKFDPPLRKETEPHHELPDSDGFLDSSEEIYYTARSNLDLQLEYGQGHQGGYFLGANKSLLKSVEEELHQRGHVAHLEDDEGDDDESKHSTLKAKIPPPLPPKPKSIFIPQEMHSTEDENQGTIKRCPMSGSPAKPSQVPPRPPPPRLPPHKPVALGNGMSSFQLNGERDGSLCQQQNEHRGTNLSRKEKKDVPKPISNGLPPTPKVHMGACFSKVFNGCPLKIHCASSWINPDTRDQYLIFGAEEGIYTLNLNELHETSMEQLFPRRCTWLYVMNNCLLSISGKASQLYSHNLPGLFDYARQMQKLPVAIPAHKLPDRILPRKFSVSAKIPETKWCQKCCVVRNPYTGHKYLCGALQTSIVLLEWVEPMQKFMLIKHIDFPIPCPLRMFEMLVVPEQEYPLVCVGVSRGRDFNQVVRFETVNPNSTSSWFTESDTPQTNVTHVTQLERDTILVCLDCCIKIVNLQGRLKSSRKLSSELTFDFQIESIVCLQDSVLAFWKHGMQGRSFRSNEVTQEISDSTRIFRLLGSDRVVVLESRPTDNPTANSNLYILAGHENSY
In short: as §1

MAP4K4 = MAP4K4 (UniProt O95819)
In short: as §1

NEK6 = NEK6 (UniProt Q9HC98); conditions: cell material: Lysate mix
In short: as §1

PIM2 = PIM2 (UniProt Q9P1W9)
In short: as §1

PIM3 = PIM3 (UniProt Q86V86)
In short: as §1

SRC = SRC (UniProt P12931)
In short: as §1

UniProt O94804 = target: UniProt O94804
In short: as §1

UniProt O96017 = target: UniProt O96017
In short: as §1

UniProt Q5TCX8 = target: UniProt Q5TCX8
In short: as §1

FER, sequence (P16591 whole entry, looked up): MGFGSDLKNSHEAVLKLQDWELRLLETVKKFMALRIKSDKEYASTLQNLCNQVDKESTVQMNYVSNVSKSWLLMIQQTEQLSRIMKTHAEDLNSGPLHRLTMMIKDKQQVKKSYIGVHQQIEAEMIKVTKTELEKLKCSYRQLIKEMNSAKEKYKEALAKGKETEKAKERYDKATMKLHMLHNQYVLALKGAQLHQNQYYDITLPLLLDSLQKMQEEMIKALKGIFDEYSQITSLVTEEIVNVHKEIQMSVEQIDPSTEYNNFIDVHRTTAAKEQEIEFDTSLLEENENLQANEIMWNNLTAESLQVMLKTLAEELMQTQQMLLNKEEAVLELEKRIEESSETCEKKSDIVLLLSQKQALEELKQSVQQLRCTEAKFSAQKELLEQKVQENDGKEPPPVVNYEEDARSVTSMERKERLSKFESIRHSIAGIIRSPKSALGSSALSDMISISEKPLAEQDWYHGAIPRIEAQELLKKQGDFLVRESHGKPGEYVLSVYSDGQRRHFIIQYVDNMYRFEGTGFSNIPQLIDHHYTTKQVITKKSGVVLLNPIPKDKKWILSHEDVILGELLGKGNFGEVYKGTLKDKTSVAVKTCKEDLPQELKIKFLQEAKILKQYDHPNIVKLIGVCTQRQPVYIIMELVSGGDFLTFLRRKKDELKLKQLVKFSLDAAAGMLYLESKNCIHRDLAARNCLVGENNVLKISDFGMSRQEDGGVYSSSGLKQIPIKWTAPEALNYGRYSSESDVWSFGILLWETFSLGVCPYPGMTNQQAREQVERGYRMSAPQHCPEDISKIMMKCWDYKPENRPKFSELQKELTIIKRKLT
PIM2, sequence (Q9P1W9 whole entry, looked up): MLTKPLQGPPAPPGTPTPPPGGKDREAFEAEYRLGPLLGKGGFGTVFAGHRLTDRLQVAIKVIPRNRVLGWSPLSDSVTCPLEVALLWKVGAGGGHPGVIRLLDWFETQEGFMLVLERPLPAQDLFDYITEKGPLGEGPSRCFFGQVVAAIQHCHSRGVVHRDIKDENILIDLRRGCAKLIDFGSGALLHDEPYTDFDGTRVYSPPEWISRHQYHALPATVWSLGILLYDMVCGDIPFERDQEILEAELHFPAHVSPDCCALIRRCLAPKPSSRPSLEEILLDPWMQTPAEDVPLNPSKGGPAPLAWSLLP
SRC, sequence (P12931 whole entry, looked up): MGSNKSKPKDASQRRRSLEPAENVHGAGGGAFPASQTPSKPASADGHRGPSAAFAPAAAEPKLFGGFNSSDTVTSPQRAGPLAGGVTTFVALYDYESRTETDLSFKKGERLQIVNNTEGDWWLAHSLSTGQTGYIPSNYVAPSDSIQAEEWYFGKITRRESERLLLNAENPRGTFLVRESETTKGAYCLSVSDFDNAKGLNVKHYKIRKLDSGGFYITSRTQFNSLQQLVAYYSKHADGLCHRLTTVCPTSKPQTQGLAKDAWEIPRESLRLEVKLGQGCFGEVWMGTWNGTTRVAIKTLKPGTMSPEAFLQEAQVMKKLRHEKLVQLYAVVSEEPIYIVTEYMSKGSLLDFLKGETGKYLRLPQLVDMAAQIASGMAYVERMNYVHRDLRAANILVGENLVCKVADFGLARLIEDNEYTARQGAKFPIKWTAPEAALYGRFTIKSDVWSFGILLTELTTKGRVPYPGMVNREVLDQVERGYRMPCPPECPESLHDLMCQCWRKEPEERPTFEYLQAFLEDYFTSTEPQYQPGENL
UniProt Q5TCX8, sequence (Q5TCX8 whole entry): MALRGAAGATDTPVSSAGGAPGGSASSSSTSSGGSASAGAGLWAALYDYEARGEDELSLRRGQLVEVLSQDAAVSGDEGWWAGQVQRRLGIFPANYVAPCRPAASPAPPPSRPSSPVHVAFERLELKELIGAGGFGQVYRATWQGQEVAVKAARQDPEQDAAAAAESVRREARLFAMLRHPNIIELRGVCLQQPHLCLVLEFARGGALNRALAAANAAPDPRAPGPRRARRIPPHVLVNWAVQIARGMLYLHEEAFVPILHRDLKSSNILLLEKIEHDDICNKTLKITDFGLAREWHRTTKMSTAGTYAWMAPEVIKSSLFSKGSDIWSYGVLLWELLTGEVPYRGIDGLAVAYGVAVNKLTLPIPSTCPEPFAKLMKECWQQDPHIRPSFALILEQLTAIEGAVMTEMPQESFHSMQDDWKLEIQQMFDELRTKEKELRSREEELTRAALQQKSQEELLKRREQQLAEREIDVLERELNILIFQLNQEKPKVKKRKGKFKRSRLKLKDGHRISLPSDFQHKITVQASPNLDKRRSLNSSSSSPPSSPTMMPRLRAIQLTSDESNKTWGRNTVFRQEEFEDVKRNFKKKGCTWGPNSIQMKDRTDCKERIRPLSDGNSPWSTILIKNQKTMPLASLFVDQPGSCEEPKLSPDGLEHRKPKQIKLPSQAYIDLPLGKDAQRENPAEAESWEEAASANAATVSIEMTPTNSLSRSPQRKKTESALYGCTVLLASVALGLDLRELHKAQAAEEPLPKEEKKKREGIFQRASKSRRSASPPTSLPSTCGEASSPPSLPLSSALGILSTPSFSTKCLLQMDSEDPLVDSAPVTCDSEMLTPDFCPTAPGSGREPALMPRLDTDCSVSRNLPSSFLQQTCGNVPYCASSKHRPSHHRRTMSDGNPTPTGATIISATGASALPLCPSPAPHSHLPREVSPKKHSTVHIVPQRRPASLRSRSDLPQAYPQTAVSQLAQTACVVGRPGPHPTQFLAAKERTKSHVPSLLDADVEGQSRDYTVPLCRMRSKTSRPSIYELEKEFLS
UniProt O96017, sequence (O96017 whole entry): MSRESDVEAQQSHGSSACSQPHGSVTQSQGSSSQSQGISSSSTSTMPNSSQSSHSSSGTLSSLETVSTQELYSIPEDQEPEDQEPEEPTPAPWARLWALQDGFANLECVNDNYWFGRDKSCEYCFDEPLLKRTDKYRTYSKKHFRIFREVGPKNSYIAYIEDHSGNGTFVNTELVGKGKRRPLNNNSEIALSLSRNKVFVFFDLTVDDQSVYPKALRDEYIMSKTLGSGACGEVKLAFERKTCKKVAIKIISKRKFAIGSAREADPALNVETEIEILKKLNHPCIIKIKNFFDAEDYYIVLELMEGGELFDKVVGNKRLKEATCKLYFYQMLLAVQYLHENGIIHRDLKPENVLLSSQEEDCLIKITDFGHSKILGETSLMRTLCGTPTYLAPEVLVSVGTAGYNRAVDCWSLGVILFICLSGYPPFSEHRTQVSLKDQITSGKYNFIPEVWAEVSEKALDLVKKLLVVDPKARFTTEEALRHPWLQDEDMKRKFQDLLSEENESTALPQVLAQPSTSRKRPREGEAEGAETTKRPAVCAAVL
MAP4K4, sequence (O95819 whole entry, looked up): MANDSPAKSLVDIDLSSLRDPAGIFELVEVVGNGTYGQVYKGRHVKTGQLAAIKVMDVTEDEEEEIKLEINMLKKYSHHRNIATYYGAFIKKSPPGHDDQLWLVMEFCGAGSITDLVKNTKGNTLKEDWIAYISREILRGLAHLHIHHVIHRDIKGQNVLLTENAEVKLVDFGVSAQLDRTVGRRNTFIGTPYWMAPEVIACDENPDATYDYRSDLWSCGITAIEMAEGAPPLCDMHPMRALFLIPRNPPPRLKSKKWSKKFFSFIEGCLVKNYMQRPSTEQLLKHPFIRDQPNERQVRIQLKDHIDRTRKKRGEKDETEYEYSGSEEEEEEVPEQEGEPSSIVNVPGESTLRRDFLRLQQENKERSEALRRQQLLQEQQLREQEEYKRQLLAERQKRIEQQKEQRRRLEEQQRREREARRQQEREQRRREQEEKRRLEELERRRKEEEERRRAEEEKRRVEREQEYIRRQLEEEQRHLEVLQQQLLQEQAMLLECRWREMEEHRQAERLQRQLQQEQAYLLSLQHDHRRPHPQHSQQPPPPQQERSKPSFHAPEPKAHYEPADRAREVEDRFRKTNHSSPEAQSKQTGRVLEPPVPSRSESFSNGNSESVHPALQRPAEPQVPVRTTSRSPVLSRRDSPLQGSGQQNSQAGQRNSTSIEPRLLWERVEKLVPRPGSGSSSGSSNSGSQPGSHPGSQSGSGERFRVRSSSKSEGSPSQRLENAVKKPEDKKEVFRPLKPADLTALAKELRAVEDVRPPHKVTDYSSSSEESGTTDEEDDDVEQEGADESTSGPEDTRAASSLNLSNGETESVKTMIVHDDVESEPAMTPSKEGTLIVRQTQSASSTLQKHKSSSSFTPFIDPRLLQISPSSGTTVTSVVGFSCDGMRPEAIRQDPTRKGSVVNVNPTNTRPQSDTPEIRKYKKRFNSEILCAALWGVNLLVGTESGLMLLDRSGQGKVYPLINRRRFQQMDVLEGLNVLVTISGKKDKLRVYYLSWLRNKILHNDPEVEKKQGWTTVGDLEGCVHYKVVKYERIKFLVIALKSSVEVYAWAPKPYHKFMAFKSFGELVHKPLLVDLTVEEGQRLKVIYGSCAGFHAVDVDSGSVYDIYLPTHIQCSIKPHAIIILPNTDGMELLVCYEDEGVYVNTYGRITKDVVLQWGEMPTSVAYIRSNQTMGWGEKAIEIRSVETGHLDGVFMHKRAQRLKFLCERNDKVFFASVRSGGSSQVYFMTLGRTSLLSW

SMILES | pIC50 (BCR) | pIC50 (CAMKK2; cell material: Lysate mix) | pIC50 (EIF2AK4; cell material: Lysate mix) | pIC50 (FER; cell material: Lysate mix) | pIC50 (MAP4K3; cell material: Lysate mix) | pIC50 (MAP4K4; cell material: Lysate mix) | pIC50 (NEK6) | pIC50 (PIM2; cell material: Lysate mix) | pIC50 (PIM3; cell material: Lysate mix) | pIC50 (SRC; cell material: Lysate mix) | pIC50 (UniProt O94804; cell material: Lysate mix) | pIC50 (UniProt O96017; cell material: Lysate mix) | pIC50 (UniProt Q5TCX8; cell material: Lysate mix) | pIC50 (CAMKK2; cell material: Jurkat cells) | pIC50 (CAMKK2; cell material: Jurkat lysate) | pIC50 (EIF2AK4; cell material: Jurkat cells) | pIC50 (EIF2AK4; cell material: Jurkat lysate) | pIC50 (FER; cell material: Jurkat cells) | pIC50 (FER; cell material: Jurkat lysate) | pIC50 (MAP4K3; cell material: Jurkat cells) | pIC50 (MAP4K3; cell material: Jurkat lysate) | pIC50 (MAP4K4; cell material: Jurkat cells) | pIC50 (MAP4K4; cell material: Jurkat lysate) | pIC50 (PIM2; cell material: Jurkat lysate) | pIC50 (PIM3; cell material: Jurkat lysate) | pIC50 (SRC; cell material: Jurkat cells) | pIC50 (SRC; cell material: Jurkat lysate) | pIC50 (UniProt O94804; cell material: Jurkat cells) | pIC50 (UniProt O94804; cell material: Jurkat lysate) | pIC50 (UniProt O96017; cell material: Jurkat cells) | pIC50 (UniProt O96017; cell material: Jurkat lysate) | pIC50 (UniProt Q5TCX8; cell material: Jurkat cells) | pIC50 (PIM3; cell material: Jurkat cells) | pIC50 (UniProt Q5TCX8; cell material: Jurkat lysate)
CCNC(=O)c1cc(Nc2cc(C)[nH]n2)nc(N2CCN(Cc3ccc(S(=O)(=O)F)cc3)CC2)n1 | < 4.52 | < 4.52 | 4.98 | 4.72 | < 4.52 | < 4.52 | < 4.52 | < 4.52 | < 4.52 | 6.61 | < 4.52 | 4.92 | < 4.52 | – | – | – | – | – | – | – | – | – | – | – | – | – | – | – | – | – | – | – | – | –
CCNC(=O)c1cc(Nc2cc(C3CC3)[nH]n2)nc(N2CCN(Cc3ccc(S(=O)(=O)F)cc3)CC2)n1 | < 4.52 | 5.6 | 5.35 | 5.62 | 5.11 | < 4.52 | < 4.52 | < 4.52 | < 4.52 | 6.14 | < 4.52 | 4.75 | 4.65 | – | – | – | – | – | – | – | – | – | – | – | – | – | – | – | – | – | – | – | – | –
Cc1cc(Nc2cc(C(=O)NCCNC(=O)OC3CC/C=C/CCC3)nc(N3CCN(Cc4ccc(S(=O)(=O)F)cc4)CC3)n2)n[nH]1 (stereo unspecified) | < 4.52 | < 4.52 | < 4.52 | < 4.52 | < 4.52 | < 4.52 | < 4.52 | < 4.52 | < 4.52 | 4.7 | < 4.52 | 5.23 | < 4.52 | – | – | – | – | – | – | – | – | – | – | – | – | – | – | – | – | – | – | – | – | –
C#CCNC(=O)c1cc(Nc2cc(C3CC3)[nH]n2)nc(N2CCN(Cc3ccc(S(=O)(=O)F)cc3)CC2)n1 | < 4.52 | 5.88 | 5.44 | 5.92 | 5.43 | – | < 4.52 | < 4.52 | < 4.52 | 6.24 | < 4.52 | 4.92 | 4.8 | 5.88 | 5.7 | 6.08 | 4.63 | 6.2 | 5.44 | 6.02 | 4.77 | 5.9 | < 4.52 | < 4.52 | < 4.52 | 6.41 | 5.68 | 5.04 | < 4.52 | 5.76 | 4.88 | 5.78 | – | –
C#CCNC(=O)c1cc(Nc2cc(C)[nH]n2)nc(N2CCN(Cc3ccc(S(=O)(=O)F)cc3)CC2)n1 | < 4.52 | < 4.52 | 5.15 | 4.78 | 4.65 | < 4.52 | < 4.52 | < 4.52 | < 4.52 | 5.89 | < 4.52 | 4.98 | < 4.52 | – | – | – | – | – | – | – | – | – | – | – | – | – | – | – | – | – | – | – | – | –
O=C(NCCNC(=O)c1cc(Nc2cc(C3CC3)[nH]n2)nc(N2CCN(Cc3ccc(S(=O)(=O)F)cc3)CC2)n1)OC1CC/C=C/CCC1 (stereo unspecified) | < 4.52 | 5 | < 4.52 | < 4.52 | < 4.52 | < 4.52 | < 4.52 | < 4.52 | < 4.52 | – | < 4.52 | 4.71 | < 4.52 | 6.18 | 5.1 | 5.62 | < 4.52 | 5.6 | < 4.52 | 5.15 | < 4.52 | 5.15 | < 4.52 | < 4.52 | < 4.52 | 5.9 | < 4.52 | < 4.52 | < 4.52 | 5.78 | 4.92 | 4.93 | 5.49 | < 4.52

From the supplement of paper PMC12076712
